Here are results for four compounds from patent US20260345591A1, “COMBINATIONS OF ESTROGEN RECEPTOR DEGRADERS AND CDK4 INHIBITORS” (PFIZER INC., priority 2023, published 2026).

A short description of data set [1]: Biopharmaceutics Classification System (solubility/permeability). Type of data set: physicochemical.
A short description of data set [2]: Interconversion to epimer. Type of data set: physicochemical.
For data set [3], the system named is HR+HER2− BC Xenograft Model MCF7. Put plainly: Tumor regrowth after end of treatment in MCF7 xenograft model. Type of data set: in vivo, Mus musculus (NSG mice). To be noted: fulvestrant 10 mg/kg alone; Compound A 30 mg/kg QD alone; palbociclib 10 mg/kg BID + Compound A 30 mg/kg QD. The protocol: (§1) To establish the MCF7 P1, when tumor volume of MCF7 PO donor mice reached a range of 700 to 800 mm3, tumors were collected and cut into fragments. The fragments were subsequently transplanted into secondary recipient mice for TGI study expansion. Secondary recipient mice were than randomly assigned to groups (n=10) when tumor volumes reached a range between 143 mm3 and 209 mm3 and subsequently treated with: 1) vehicle (0.5% methylcellulose A4M/water), PO; 2) fulvestrant at 10 mg/kg twice in the first week, then weekly afterwards, SC; 3) Compound A at 30 mg/kg QD, PO; 4) Compound B at 30 mg/kg BID, PO; 5) Compound B at 60 mg/kg BID, PO; 6) Compound B at 30 mg/kg plus fulvestrant; 7) Compound B at 60 mg/kg plus fulvestrant; 8) Compound B at 30 mg/kg plus Compound A; 9) Compound B at 60 mg/kg plus […]; 10) palbociclib at 10 mg/kg BID, PO plus Compound A. All mice received treatment continuously until Day 42. TGI was assessed on Day 41 post first dose.
For the efficacy measurements, tumor volume and body weights were collected twice a week. Tumor volume was calculated using the [(Length×Width×Width)/2)] formula. TGI was calculated as 100*(1−ΔT/ΔC). […]
Tumor growth delay was monitored after treatment was discontinued on Day 43 and statistical analysis was performed on Day 26 post last dose (Day 69 post study start).

A further data set has as its system MCF7 xenograft model. The data set can be described thus: Tumor growth inhibition (anti-tumor efficacy) in MCF7 xenograft model, HR+/HER2- breast cancer. Type of data set: in vivo, Mus musculus (NSG mice). To be noted: for TGI / TGI, statistical significance (ANCOVA): Day 41. The protocol: To generate MCF7 PO donors, cells were obtained from ATCC and cultured in RPM11640 supplemented with 10% FBS. All cells were maintained in a humidified incubator at 37 °C with 5% CO2.
To establish the MCF7 PO donor mice, cells (5×10^6/mouse with 50% Cultrex® Basement Membrane Matrix) were subcutaneously (in 0.2 mL total volume) implanted in female NSG mice supplemented with 17β-ESTRADIOL water ad libidum (8.5 μg/mL concentration). The 17β-ESTRADIOL water supplement was administered about 7 days before the implant and all throughout the duration of the study.
as §1
For the efficacy measurements, tumor volume and body weights were collected twice a week. Tumor volume was calculated using the [(Length×Width×Width)/2)] formula. TGI was calculated as 100*(1−ΔT/ΔC). The ΔC (ΔT) was obtained by subtracting the mean tumor burden in the vehicle (treated) group on the first day of treatment (Day 0) from the mean tumor burden in vehicle (treated) group on the assessment day. Statistical analysis was performed using TGI Analyzer ANCOVA. BLISS statistical analysis (statistical modeling of single drug response from drug combination data) was used to measure synergy effect, a combination is synergistic if the tumor volume is less than the BLISS with pvalue of <0.05.
Compound B was tested at two CRD dose levels (30 mg/kg, BID and 60 mg/kg, BID) as a single agent or in combination with Compound A at 30 mg/kg QD or fulvestrant at CRD (10 mg/kg). Palbociclib at CRD (10 mg/kg, BID) in combination with Compound A served as a positive comparator.

Data set [4] in a line: Preclinical exposure of epimer Compound C compared to Compound A. Type of data set: in vivo. To be noted: preclinical data.
For a further data set, the target named is T1, estrogen receptor (Homo sapiens, UniProt P03372).
T1 construct: cereblon-recruiting PROTAC degradation
T1 sequence (P03372 1-595): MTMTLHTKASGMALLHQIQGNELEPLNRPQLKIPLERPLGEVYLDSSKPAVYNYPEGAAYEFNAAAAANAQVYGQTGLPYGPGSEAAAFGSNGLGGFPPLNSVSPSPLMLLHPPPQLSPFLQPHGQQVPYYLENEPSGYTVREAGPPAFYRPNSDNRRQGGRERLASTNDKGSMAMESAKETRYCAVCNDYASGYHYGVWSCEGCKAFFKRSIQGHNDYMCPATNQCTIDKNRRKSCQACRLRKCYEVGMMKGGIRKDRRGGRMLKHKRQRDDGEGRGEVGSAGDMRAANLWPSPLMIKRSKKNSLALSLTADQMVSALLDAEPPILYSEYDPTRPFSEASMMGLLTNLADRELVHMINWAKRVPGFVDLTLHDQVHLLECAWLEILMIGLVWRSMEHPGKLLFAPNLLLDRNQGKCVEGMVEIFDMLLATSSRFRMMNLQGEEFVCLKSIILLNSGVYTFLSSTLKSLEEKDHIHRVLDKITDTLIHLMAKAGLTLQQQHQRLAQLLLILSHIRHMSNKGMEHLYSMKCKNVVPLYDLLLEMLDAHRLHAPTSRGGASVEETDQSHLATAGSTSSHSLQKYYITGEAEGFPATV
Put plainly: Degradation of the estrogen receptor. The data set is classed as cell-based. To be noted: preclinical data.

[5] abbreviates: fulvestrant 10 mg/kg alone, Compound A 30 mg/kg QD alone, palbociclib 10 mg/kg BID + Compound A 30 mg/kg QD.

The structures appear in SMILES notation. “Also recorded” adds a separate entry of the source. A value given as a limit tells only on which side of the number the result lay.

Turning to `O=C1CC[C@H](N2Cc3cc(N4CCN(CC5CCN(c6ccc([C@@H]7c8ccc(O)cc8CC[C@@H]7c7ccccc7)cc6)CC5)CC4)ccc3C2=O)C(=O)N1` [Compound A, (S)-3-(5-(4-((1-(4-((1R,2S)-6-hydroxy-2-phenyl-1,2,3,4-tetrahydronaphthalen-1-yl)phenyl)piperidin-4-yl)methyl)piperazin-1-yl)-1-oxoisoindolin-2-yl)piperidine-2,6-dione], in data set [1], the “Biopharmaceutics Classification System class” value is on record as “Class IV compound (low solubility/low permeability)”. In addition, in data set [2], the “interconversion to epimer Compound C” value is reported as “can interconvert to its epimer”. For the same compound, the “Tumor regrowth, ANCOVA Analysis (Day 26 post end of treatment)” value in data set [3] was “β (indicates p < 0.05 versus Compound B single agent)”. For the same compound, the TGI in the data set on MCF7 xenograft model (Compound A 30 mg/kg PO QD × 42 D) is 119%. Also, the “TGI, statistical significance (ANCOVA)” value with MCF7 xenograft model (Compound A 30 mg/kg QD, alone or with palbociclib 10 mg/kg BID) was “*α+βγ”. Besides, the “antitumor efficacy” value in the data set on MCF7 xenograft model (setting [5]) is reported as “significant tumor regression; also recorded: no significant differences in the TGI”.

For the compound `CC(C)n1c(C(C)(C)O)nc2c(F)cc(-c3nc(N[C@@H]4CCOC[C@H]4O)ncc3Cl)cc21` [Compound B, 1,5-anhydro-3-({5-chloro-4-[4-fluoro-2-(2-hydroxypropan-2-yl)-1-(propan-2-yl)-1H-benzimidazol-6-yl]pyrimidin-2-yl}amino)-2,3-dideoxy-D-threo-pentitol], the TGI in the data set on MCF7 xenograft model (Compound B 30 mg/kg PO BID × 42 D) worked out at 62%; in the data set on MCF7 xenograft model (Compound B 60 mg/kg PO BID × 42 D), 81%. The “TGI, statistical significance (ANCOVA)” value in the data set with MCF7 xenograft model (Compound B at 30 mg/kg BID, alone or + fulvestrant 10 mg/kg) is “*α ^”; with MCF7 xenograft model (Compound B at 60 mg/kg BID, alone, + fulvestrant 10 mg/kg or + Compound A 30 mg/kg QD), “*+α”. Moreover, the “antitumor efficacy” value in the data set with MCF7 xenograft model (Compound B at 30 and 60 mg/kg BID, alone or + Compound A 30 mg/kg QD) was “significant tumor growth inhibition; also recorded: significant efficacy”.

With `O=C1CC[C@@H](N2Cc3cc(N4CCN(CC5CCN(c6ccc([C@@H]7c8ccc(O)cc8CC[C@@H]7c7ccccc7)cc6)CC5)CC4)ccc3C2=O)C(=O)N1` [Compound C], in data set [4], the “exposure of Compound C compared to Compound A” value is on record as below 26%. In addition, the “degradation of the estrogen receptor” value on estrogen receptor is recorded as “does not degrade the estrogen receptor”.

As to `C[C@]12CC[C@@H]3c4ccc(O)cc4C[C@@H](CCCCCCCCC[S+]([O-])CCCC(F)(F)C(F)(F)F)[C@H]3[C@@H]1CC[C@@H]2O` (stereo partly drawn) [Fulvestrant, fulvestrant, reference compound], in the data set with MCF7 xenograft model (fulvestrant 10 mg/kg SC, D 1, D 3, then 1x/week × 5 W), the TGI is given as −7%. In addition, the “antitumor efficacy” value in the data set on MCF7 xenograft model (setting [5]) was “no tumor growth inhibition”.
